“Also recorded” adds a separate entry of the source.
Experiments:
[1] = biological target: T1, recombinant human IL-17RA ectodomain (Homo sapiens, UniProt Q96F46); assay: Fluorescence binding measurement (fluorescence quenching); settings: fluorescence-based method, IL-17RA in solution, 1 uM
T1 construct: The recombinant human IL-17RA ectodomain was expressed in baculovirus-infected Sf-9 cells; made in house; host or cells: baculovirus-infected Sf-9 cells
Method: Fluorescence binding measurement. The recombinant human IL-17RA ectodomain was expressed in baculovirus-infected Sf-9 cells and purified as described previously. Liu et al., Nat Commun 4, 1888 (2013). The compound A18 or A0 was obtained from NCI. The purified IL-17RA protein (final concentration at 1 uM) was mixed with various concentrations of compound A0 in the solution consisting of 20 mM Tris, pH 7.5, 150 mM NaCl, and 5% DMSO in a 96-well black flat-bottom microplate (Greiner Bio-One). The reaction mixtures were incubated at room temperature at 120 rpm for 10 min, and fluorescence intensity was measured on a 2300 EnSpire Multimode Plate Reader (PerkinElmer) with excitation (265 nm) and emission (336 nm) wavelengths for A18 or with excitation (240 nm) and emission (337 nm) wavelengths for A0. The fluorescence signal (relative fluorescence intensity) was obtained by subtracting the background fluorescence of buffer and compound A0, and plotted as a function of the concentration of compound A0. The fluorescence quenching was observed as a consequence of the protein-ligand interaction at dose-dependent concentrations of compound A0, and the binding constant of compound A0 to IL-17RA was estimated by one-site total binding fit model (GraphPad Prism).

[2] = test system: IL-17A-induced intraperineal neutrophilia; assay: Peritoneal administration of IL-17A (neutrophilia); format: in vivo; settings: BALB/c mice, A18 30 μg per mouse i.p. co-injected with IL-17A 1 μg, 6 h
Method: Peritoneal administration of IL-17A. Eight-week WT BALB/cJ female mice were subjected to intraperitoneal injection (i.p.) of PBS, 1 μg of IL-17A with or without A18 (30 μg per mouse). The peritoneal cavity was lavaged with 5 ml ice-cold PBS at 6 h post treatment. Peritoneal cells were counted and quantified by differential cell counting.

IL-17RA ECD = biological target: T2, IL-17RA ECD (Homo sapiens, UniProt Q96F46); assay: Surface plasmon resonance (Biacore) binding to immobilized IL-17RA; settings: SPR, IL-17RA immobilized on CM5 chip
T2 construct: using purified the extracellular domain (ECD) of human IL-17RA
Method: Surface plasmon resonance (SPR). Binding of A18 to IL-17RA was conducted on Biacore T100 instrument. Purified IL-17RA was immobilized on CM5 sensor chip using amine coupling kit (GE healthcare). A18 of different concentrations were flown over the chip in PBSPP+ buffer (20 mM Phosphate, 2.7 mM KCl, 137 mM NaCl and 0.05% P20, pH 7.4). The chip was regenerated with 2M GnHCl. Binding KD was determined by Biaevaluation software.

IL-17A-IL-17RA binding = biological target: T3, IL-17A-IL-17RA binding (Homo sapiens, UniProt Q96F46); assay: IL-17A-IL-17RA binding assay (ELISA); settings: serial dilutions of compound
T3 construct: human IL-17RA-Fc (extracellular domain 1-322 AA fused with Fc region of human IgG1 at the C-terminus); purchased Sino Biological Inc
Method: IL-17A-IL-17RA binding assay. ELISA plates were coated with human IL-17A or IL-17E (2 μg/ml in PBS). Human IL-17RA-Fc or human IL-17RB-Fc (150 ng/ml) were added and incubated for 1 h, followed by incubation with human HRP-conjugated anti human IgG Fc secondary antibody for 1 h. ELISA were finally developed using tetramethylbenzidine substrate.

[3] = test system: IL-17A-induced epidermal hyperplasia; assay: Intradermal injection of IL-17A (skin epidermal hyperplasia); format: in vivo, mouse
Method: Intradermal injection of IL-17A. The ears of 8-week WT C57BL/6 female mice were injected intradermally with 20 μl PBS, either alone or containing 500 ng recombinant mouse IL-17A with or without A18 (30 μg per mouse). After 7 days after injection, the mice ears were fixed in 10% formalin in PBS and stained with hematoxylin and eosin (H&E). Epidermal thickness was quantified by Image J.
Real-time PCR. Total RNA was extracted from spinal cords and cultured astrocytes with TRIzol (Invitrogen) according to the manufacturer's instructions. All gene expression results are expressed as arbitrary units relative to expression of the gene encoding beta-actin.

T3 sequence (Q96F46 33-322): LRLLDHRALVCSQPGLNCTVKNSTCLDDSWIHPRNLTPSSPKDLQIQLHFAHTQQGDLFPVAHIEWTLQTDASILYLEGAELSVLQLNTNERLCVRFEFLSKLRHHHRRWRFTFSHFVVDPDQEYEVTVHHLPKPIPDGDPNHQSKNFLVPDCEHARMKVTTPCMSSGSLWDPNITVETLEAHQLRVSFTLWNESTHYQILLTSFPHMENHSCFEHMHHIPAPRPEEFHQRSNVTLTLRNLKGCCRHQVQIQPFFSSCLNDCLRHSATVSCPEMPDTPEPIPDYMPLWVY
T1 sequence (Q96F46 33-320 limits assumed): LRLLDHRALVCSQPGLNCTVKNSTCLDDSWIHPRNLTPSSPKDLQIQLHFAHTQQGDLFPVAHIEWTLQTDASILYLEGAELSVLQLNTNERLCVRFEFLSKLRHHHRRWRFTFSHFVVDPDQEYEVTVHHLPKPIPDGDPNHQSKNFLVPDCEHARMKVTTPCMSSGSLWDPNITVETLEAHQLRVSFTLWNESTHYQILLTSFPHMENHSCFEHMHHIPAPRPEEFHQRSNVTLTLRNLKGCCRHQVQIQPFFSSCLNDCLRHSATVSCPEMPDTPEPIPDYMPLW
T2 sequence (Q96F46 33-320 limits assumed): as above

SMILES: Oc1cc(O)c2cc(O)c(-c3ccc(O)c(O)c3)[o+]c2c1.[Cl-] [A18, 2-(3,4-Dihydroxyphenyl)-3,5,7-trihydroxy-1-benzopyrylium chloride]
- Kd [1]: ~5 µM
- IL-17A-induced intraperineal neutrophilia [2]: greatly attenuated
- Kd (IL-17RA ECD): 0.225 µM
- Inhibition of IL-17A-IL-17RA binding (IL-17A-IL-17RA binding): excellent inhibition efficacy; also recorded: great inhibition efficacy
- IL-17A-dependent epidermal hyperplasia ([3]; C57Bl/6 ears, IL-17A 500 ng with A18 30 μg per mouse intradermal, 6 consecutive days): greatly reduced
- Levels of C-myc, Pled and Steap4 in IL-17A-treated ears ([3]; RT-PCR): attenuated

— US10385034B2, “Flavonoid IL-17A inhibitors” (THE CLEVELAND CLINIC FOUNDATION, priority 2014, dated 2019)
